One experiment has as its target T1, TRPC5 (Homo sapiens, UniProt Q9UL62).
T1 construct: expressed in transfected cells; host or cells: HEK 293
T1 sequence (Q9UL62 1-973): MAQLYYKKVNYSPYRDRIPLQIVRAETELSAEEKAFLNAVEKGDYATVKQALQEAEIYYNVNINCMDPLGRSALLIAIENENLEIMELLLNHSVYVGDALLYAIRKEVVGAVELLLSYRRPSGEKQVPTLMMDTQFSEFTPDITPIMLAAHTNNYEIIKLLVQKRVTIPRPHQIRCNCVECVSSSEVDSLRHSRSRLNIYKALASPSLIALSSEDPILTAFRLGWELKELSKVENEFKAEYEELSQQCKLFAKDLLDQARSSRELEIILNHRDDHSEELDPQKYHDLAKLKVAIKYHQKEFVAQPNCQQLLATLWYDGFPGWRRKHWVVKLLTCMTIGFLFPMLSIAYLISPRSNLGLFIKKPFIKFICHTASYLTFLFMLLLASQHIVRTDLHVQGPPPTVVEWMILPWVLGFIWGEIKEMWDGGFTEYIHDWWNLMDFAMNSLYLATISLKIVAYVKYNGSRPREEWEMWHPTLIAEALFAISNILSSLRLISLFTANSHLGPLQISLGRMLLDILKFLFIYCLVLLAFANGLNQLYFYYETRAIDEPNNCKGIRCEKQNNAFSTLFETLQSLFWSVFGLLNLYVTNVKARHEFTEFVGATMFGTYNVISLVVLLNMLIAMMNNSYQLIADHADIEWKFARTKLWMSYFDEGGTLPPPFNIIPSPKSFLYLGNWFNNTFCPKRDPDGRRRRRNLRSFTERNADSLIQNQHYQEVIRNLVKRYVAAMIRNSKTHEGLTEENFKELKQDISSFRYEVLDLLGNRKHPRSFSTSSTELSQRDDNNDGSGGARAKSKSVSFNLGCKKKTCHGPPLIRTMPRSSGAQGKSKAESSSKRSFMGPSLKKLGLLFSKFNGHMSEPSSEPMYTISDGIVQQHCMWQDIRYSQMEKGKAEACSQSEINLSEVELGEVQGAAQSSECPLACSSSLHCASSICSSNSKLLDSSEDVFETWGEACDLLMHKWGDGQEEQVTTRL
The experiment in a line: TRPC5 automated patch clamp assay (Qpatch), current block after rosiglitazone stimulation. Conditions: HEK293 cells overexpressing TRPC5; rosiglitazone stimulation; 80 mV; read-out: TRPC5_QP XC50_80. Type of experiment: cell-based. As to the method: HEK 293 cells expressing human TRPC5 were harvested, re-suspended in serum free medium, and added to the automated platform and used within 2-3 hours. Internal and external physiological solutions were freshly prepared prior to the assay. The external solution contained: 145 mM NaCl, 4 mM KCl, 2 mM CaCl2), 1 mM MgCl2, 10 mM HEPES, 10 mM glucose, pH 7.4 with NaOH and 300 mOsm/L. The internal solution contained 120 mM L-aspartic acid, 120 mM CsOH·H2O, 20 mM CsCl, 2 mM MgCl2, 8.8 mM CaCl2), 10 mM EGTA, 10 mM HEPES, 10 mM Glucose, 0.1 mM GTP and 2 mM Na2ATP; pH 7.2 with CsOH and 290 mOsm/L. The free internal Ca2+ concentration was buffered to 1 μM.
The automated electrophysiological platform QPatch 16 from Sophion (Denmark) was used to carry out the compounds profiling. The series resistance and quality of seals were continuously monitored during the experiments. Data was analyzed using Sophion QPatch assay software 5.6 (Odense). IC50 values were calculated using a least squares regression algorithm (Hill equation).
To monitor the ion currents, a voltage ramp from −100 mV to +100 mV, over 300 ms, was applied every 10 seconds, from a holding potential of −60 mV.
After recording for a minimum of 60 seconds control period, Rosiglitazone (30 uM), was applied to activate the channel.
(In general: Patch clamp records ionic current or voltage across a cell membrane.)
As to `Cc1cccc(C)c1CN1CCN(c2cn[nH]c(=O)c2Br)CC1`, the IC50 lay within 1 to 5 µM.
As for `Cc1ccccc1CN1CC2CC(C1)N2c1cn[nH]c(=O)c1Br`, the IC50 lay within 10 to 500 µM.
Still for that read-out and setting: then `CN(C)C(=O)CN1CCN(c2cn[nH]c(=O)c2Br)CC1`, with 10 to 500 µM; and `O=c1[nH]ncc(N2CCN(Cc3ccccc3)C3(CC3)C2)c1Br`, with 10 to 500 µM.
The same measure, in the same setting: then `Cc1ccccc1CN1CCN(c2cn[nH]c(=O)c2Cl)CC1=O` [drawing 631], with 1e-05 to 1 µM; and `O=c1[nH]ncc(N2CCN(Cc3ccccc3)CC2)c1Br`, with 5 to 10 µM; and `CN1CCN(c2cn[nH]c(=O)c2Br)CC1`, with 10 to 500 µM.

The experiment is the same for the next values; noted with them: HEK293 cells overexpressing TRPC5; rosiglitazone stimulation; 100 mV; read-out: TRPC5_QP XC50_100.
`Cc1cccc(C)c1CN1CCN(c2cn[nH]c(=O)c2Br)CC1`: the IC50 was 1 to 5 µM.
Same read-out and setting: then `Cc1ccccc1CN1CC2CC(C1)N2c1cn[nH]c(=O)c1Br`, with 10 to 500 µM; and `CN(C)C(=O)CN1CCN(c2cn[nH]c(=O)c2Br)CC1`, with 10 to 500 µM; and `O=c1[nH]ncc(N2CCN(Cc3ccccc3)C3(CC3)C2)c1Br`, with 10 to 500 µM.
Regarding `Cc1ccccc1CN1CCN(c2cn[nH]c(=O)c2Cl)CC1=O` [drawing 631], the IC50 was 1e-05 to 1 µM.
On the same count and under the same terms, then `O=c1[nH]ncc(N2CCN(Cc3ccccc3)CC2)c1Br`, with 5 to 10 µM; and `CN1CCN(c2cn[nH]c(=O)c2Br)CC1`, with 10 to 500 µM.

Staying with this experiment, now noted: Table 3; HEK293 cells overexpressing TRPC5; rosiglitazone stimulation; 80 mV; read-out: TRPC5_QP_ XC50_80.
Consider `CN(C)C(=O)CN1CCN(c2cn[nH]c(=O)c2Cl)CC1` [drawing 673], for which the IC50 is 10 to 500 µM.
Regarding `O=C1CN(c2cn[nH]c(=O)c2Br)CCN1CC1CCCCC1`, the IC50 is 1 to 5 µM.
On to `O=C1CN(c2cn[nH]c(=O)c2Cl)CCN1Cc1ccc(F)cc1F` [drawing 686], for which the IC50 was in the range of 1 to 5 µM.
On to `Cc1ccccc1CN1CCN(c2cn[nH]c(=O)c2-c2ccccc2)CC1`, for which the IC50 was in the range of 5 to 10 µM.
Same read-out and setting: then `CC(C)(C)CN1CCN(c2cn[nH]c(=O)c2Br)CC1`, with 10 to 500 µM; and `O=c1[nH]ncc(N2CCN(Cc3ccc(Cl)cc3F)CC2)c1Cl`, with 5 to 10 µM; and `O=C1CN(c2cn[nH]c(=O)c2Br)CCN1Cc1cccc2ccccc12` [drawing 665], with 1e-05 to 1 µM.
Turning to `O=c1[nH]ncc(N2CCCN(Cc3ccccc3)CC2)c1Br`, the IC50 fell in the range of 10 to 500 µM.

The experiment is the same for the next values; noted with them: Table 3; HEK293 cells overexpressing TRPC5; rosiglitazone stimulation; 100 mV; read-out: TRPC5_QP_ XC50_100.
For `CN(C)C(=O)CN1CCN(c2cn[nH]c(=O)c2Cl)CC1` [drawing 673], the IC50 lay in the range of 10 to 500 µM.
For the molecule `O=C1CN(c2cn[nH]c(=O)c2Br)CCN1CC1CCCCC1`, the IC50 is 1 to 5 µM.
On the same count and under the same terms, then `O=C1CN(c2cn[nH]c(=O)c2Cl)CCN1Cc1ccc(F)cc1F` [drawing 686], with 1 to 5 µM.
Still for that read-out and setting: then `Cc1ccccc1CN1CCN(c2cn[nH]c(=O)c2-c2ccccc2)CC1`, with 5 to 10 µM; and `CC(C)(C)CN1CCN(c2cn[nH]c(=O)c2Br)CC1`, with 10 to 500 µM.
With `O=c1[nH]ncc(N2CCN(Cc3ccc(Cl)cc3F)CC2)c1Cl`, the IC50 was 10 to 500 µM.
On to `O=C1CN(c2cn[nH]c(=O)c2Br)CCN1Cc1cccc2ccccc12` [drawing 665], for which the IC50 lay within 1e-05 to 1 µM.
Consider `O=c1[nH]ncc(N2CCCN(Cc3ccccc3)CC2)c1Br`, for which the IC50 is 10 to 500 µM.

Still in this experiment, the particulars now being: Table 4; HEK293 cells overexpressing TRPC5; rosiglitazone stimulation; 80 mV; read-out: TRPC5_QP_ XC50_80.
For the molecule `O=C1CN(c2cn[nH]c(=O)c2Cl)CCN1Cc1cccc2ccccc12`, the IC50 lay within 1e-05 to 1 µM.
Still for that read-out and setting: then `O=C1CN(c2cn[nH]c(=O)c2Cl)CCN1Cc1ccc(Cl)cn1`, with 10 to 500 µM; and `COc1n[nH]c(=O)cc1N1CCN(Cc2ccc(F)cc2C)CC1`, with 10 to 500 µM; and `CCN(CC)C(=O)CN1CCN(c2cn[nH]c(=O)c2Cl)[C@H](C)C1`, with 10 to 500 µM.
For the molecule `Cc1ccccc1CN1CCN(c2cn[nH]c(=O)c2C2CCOCC2)CC1=O`, the IC50 lay within 10 to 500 µM.
In the case of `Cc1ccccc1[C@H](C)N1CCN(c2cn[nH]c(=O)c2Cl)CC1=O` [drawing 743], the IC50 lay in the range of 1e-05 to 1 µM.
`C[C@@H](c1ccccc1)N1CCN(c2cn[nH]c(=O)c2Cl)CC1`: the IC50 was 5 to 10 µM.
Consider `Cn1ncc2c(CN3CCN(c4cn[nH]c(=O)c4Cl)CC3=O)cccc21`, for which the IC50 lay within 1 to 5 µM.
On the same count and under the same terms, then `Cc1cc(F)ccc1CN1CCN(c2c(Cl)c(Br)n[nH]c2=O)CC1=O`, with 10 to 500 µM.

Still in this experiment, the particulars now being: Table 4; HEK293 cells overexpressing TRPC5; rosiglitazone stimulation; 100 mV; read-out: TRPC5_QP_ XC50_100.
Regarding `O=C1CN(c2cn[nH]c(=O)c2Cl)CCN1Cc1cccc2ccccc12`, the IC50 fell in the range of 1e-05 to 1 µM.
Take `O=C1CN(c2cn[nH]c(=O)c2Cl)CCN1Cc1ccc(Cl)cn1`: the IC50 lay in the range of 10 to 500 µM.
As to `COc1n[nH]c(=O)cc1N1CCN(Cc2ccc(F)cc2C)CC1`, the IC50 is 10 to 500 µM.
As to `CCN(CC)C(=O)CN1CCN(c2cn[nH]c(=O)c2Cl)[C@H](C)C1`, the IC50 lay within 10 to 500 µM.
Take `Cc1ccccc1CN1CCN(c2cn[nH]c(=O)c2C2CCOCC2)CC1=O`: the IC50 was in the range of 10 to 500 µM.
With `Cc1ccccc1[C@H](C)N1CCN(c2cn[nH]c(=O)c2Cl)CC1=O` [drawing 743], the IC50 lay within 1e-05 to 1 µM.
As to `C[C@@H](c1ccccc1)N1CCN(c2cn[nH]c(=O)c2Cl)CC1`, the IC50 fell in the range of 1 to 5 µM.
Same read-out and setting: then `Cn1ncc2c(CN3CCN(c4cn[nH]c(=O)c4Cl)CC3=O)cccc21`, with 1 to 5 µM; and `Cc1cc(F)ccc1CN1CCN(c2c(Cl)c(Br)n[nH]c2=O)CC1=O`, with 10 to 500 µM.

For the origin of these results see patent US20260184708A1, “PYRIDAZINONES AND METHODS OF USE THEREOF” (GFB (ABC), LLC, priority 2017, published 2026).
